According to patent US6677302B2, “Compositions and methods for the treatment of viral disorders” (The Trustees of Boston University, priority 1996, dated 2004):

What was measured:
[1] = tested on: EBV-TK mRNA in Raji (non-producer line); experiment: EBV-TK mRNA induction in lymphoma cell lines; type: cell-based, human; conditions: high basal level of TK, 12 hours, 3 mM
Protocol: (§1) Because of arginine butyrate's ability to induce various genes, its ability to induce EBV-TK mRNA in human lymphoma cell lines was evaluated. FIG. 7 provides bar graphs of the basal levels of TK and the levels following 12 hours of incubation with 3 mM arginine butyrate in 3 lymphoma cell lines: X50-7 a latent large cell lymphoma (B cell); P3RH1 an EBV B-cell producer line derived from Burkitt's lymphoma; and Raji a non-producer line derived from a Burkitt's lymphoma. EBV-TK levels were not increased in the EBV non-producer cell line, Raji, which has a high basal level of TK, but were increased approximately 4 fold in an EBV producer cell line and 10 fold in a non-producer cell line.

[2] = tested on: EBV-TK mRNA in X50-7 (latent large cell lymphoma); experiment: EBV-TK mRNA induction in lymphoma cell lines; type: cell-based, human; conditions: non-producer (latent) line X50-7; 12 hours, 3 mM
Protocol: as §1

[3] = tested on: EBV-TK mRNA in P3RH1 (EBV B-cell producer line); experiment: EBV-TK mRNA induction in lymphoma cell lines; type: cell-based, human; conditions: 12 hours, 3 mM
Protocol: as §1

[4] = Stability testing of arginine butyrate solution; type: physicochemical; conditions: solution for injection
Text: (§2) Butyric acid is a short chain fatty acid present in foods such as dairy products. Arginine is an amino acid which is commonly used in hyperalimentation solutions in hospitals throughout the country. Butyric acid was obtained from Aldrich, catalog number W-212. L-Arginine is anhydrous. Arginine was combined with butyric acid, pH 5.0-5.5, in sterile, non-pyrogenic water for injection to neutralize the fatty acid. The solution was filtered through a Millipore System at a final concentration for injection of 100 mg/ml or 25 mg/ml. Each lot was pyrogen tested and tested for sterility and purity. […] Since 10% arginine butyrate solution is hypertonic (100 mg/ml), it must be infused through a long or deep IV access to avoid peripheral venous irritation. Arginine butyrate was infused via an infusion pump. European pharmacokinetic studies of arginine butyrate given as a “slow” and 90 minute bolus of 500 mls of a 5% solution (2.5 g/M in two normal volunteers, and found a 15 minute elimination period. Plasma levels from patients with hemoglobinopathies have shown that butyric acid disappears within 5 to 15 minutes after an infusion of up to 2,000 mg/kg/day.

[5] = tested on: Fibroblasts (mouse BALB/c-3T3); experiment: MIC on cell proliferation, 7 days in culture; type: cell-based
Protocol: (§3) The ability of arginine butyrate to induce differentiation has been evaluated and is measured by inhibition of growth, in some of the neoplastic cell types previously reported to be sensitive to (sodium) butyric acid, and found arginine butyrate to be as potent as butyric acid. We have also extended that work to additional cell types and found Arginine Butyrate to induce differentiation in these new cell types. Table 1 lists the cell types tested and the minimum inhibitory concentration (MIC) of sodium butyrate (NaB) and arginine butyrate (ArgB) on these cell lines. The MIC is the lowest dose that prevents all growth over the 7 days that the cells are maintained in culture, that is the minimum dose that prevents an increase in cell number. […] The […] of ArgB and NaB were equivalent on all cell lines tested.

[6] = tested on: Fibroblasts (normal human); experiment: MIC on cell proliferation, 7 days in culture; type: cell-based; conditions: lowest dose that prevents all growth over 7 days
Protocol: as §3

[7] = tested on: n-myc transcript in neuroblastoma cells; experiment: Expression of oncogene n-myc transcript; type: cell-based, human; conditions: 1 mM
[8] = Clinical pharmacokinetics of butyrate infusion; type: in vivo, human; conditions: patients with β-hemoglobinopathies
Protocol: Clinical experience with butyrates have been performed in children with acute myelogenous leukemia in Israel, and in children with neuroblastoma (K. Prasad, Life Sci. 27:1351-58, 1980). […] Eleven pediatric patients and twelve adults with β-hemoglobinopathies were treated with IV arginine butyrate at a starting dose of 500 mg/kg/day for 2-7 weeks. If no side effects were noted, the rate was increased by 250 mg/kg/day to a final rate of 1500 mg/kg/day in 4 patients, and 2000 mg/kg/day in 2 patients. […] This rise in BUN returned to normal within 12 hours of discontinuation of drug, and is thought to be secondary to effect of arginine upon ureagenesis. […] Peak serum levels of butyrate ranged between 0.04-0.05 mM, and butyrate was not detectable 15 minutes after infusion was discontinued. Plasma arginine levels were also rapidly cleared, with a T1/2 of 15 minutes, and baseline arginine levels were reached within 12 hours after discontinuation of infusion.
as §2
In vitro, peaks induction of EBV-TK plateaus at serum level of around 1 mM. […] Therefore, dose levels up to 2,000 mg/kg/day, were evaluated in an attempt to reach serum levels of 1 mM. Treatment cycles were of 4 week duration, with 3 weeks on treatment and one week off. Patients were given the standard dose of GCV throughout each 21 day course of arginine butyrate, starting, however, on day 0. Arginine butyrate was given by continuous IV infusion at 500 mg/kg/day for 2 days, at 1,000 mg/kg/day for 2 days, at 1,500 mg/kg/day for 2 days, and thereafter at 2,000 mg/kg/day, or as tolerated, for the rest of the 21 day course. Cycle 2 was begun on Day 29. […]

[9] = tested on: HIV p24 in co-cultures of human PBMC and Ci11; experiment: HIV p24 production, radio-immuno assay; type: cell-based; conditions: 72 hours post-cultivation; FIG. 13
Text: The effect of arginine butyrate on HIV p24 production could be easily studied in co-cultures of human PBMC and Ci11, an HIV infected cell line. […] Despite these encouraging results with a more direct assay than those published previously, the potential risks to HIV+ patients of treatment with arginine butyrate have not been evaluated as these patients were excluded from the protocol (FIG. 13). HIV p24 levels assessed by radio-immuno assay.

[10] = tested on: HLA antigens in K562 cells; conditions: one hour of exposure to 1 mM
Protocol: HLA Induction: Arginine butyrate was tested for its ability to induce expression of HLA antigens in K562 cells, a human erythroleukemia cell line.

Substance: arginine butyrate
- EBV-TK levels [1]: not increased
- EBV-TK level increase [2]: ~10 fold
- EBV-TK level increase [3]: approximately 4 fold
- stability in glass containers [4]: up to 404 days
- MIC [5]: >5,000 μM
- MIC [6]: >5,000 μM
- expression of n-myc transcript [7]: decreased approximately Mold
- Plasma arginine T1/2 ([8]; IV): 15 min
- time after discontinuation of infusion at which butyrate was not detectable ([8]; IV): 15 min
- time to baseline arginine levels after discontinuation of infusion ([8]; IV): ≤ 12 h
- Peak serum levels of butyrate ([8]; IV 500 up to 2000 mg/kg/day): 0.04 to 0.05 mM
- HIV p24 production [9]: significant decrease in p24 production
- HLA expression increase [10]: more than 20 fold
